Patent US20160368919A1, “NOVEL PYRIDINE PYRAZINONES AS BET-FAMILY BROMODOMAIN INHIBITORS” (Pfizer Inc., priority 2015, published 2016)

How the values were obtained:
BRD4 BD1 = molecular target: T1, BRD4 BD1 (Homo sapiens, UniProt O60885); assay: BRD4 BD1 Fluorescence Polarization (FP) competition binding assay; conditions: BRD4 BD1 40 nM, probe PFI-411FP 2 nM
T1 construct: His-tagged BRD4 BD1 (44-160); made in house
Description: Compound binding to BRD4 BD1 was assessed with a FP competition binding assay. […] All assay components were diluted in 50 mM HEPES pH 7.4 containing 0.08% bovine serum albumin (assay buffer). To start the assay, 8 μL of BRD4 BD1 was added to each well of a low volume 384-well black flat bottom microtiter plate (Corning 3820) containing 4 μl of various concentrations of test compound (each plate also contained positive and negative control wells to define the upper and lower limits of the assay signal). After addition of BRD4 BD1, the assay plate was incubated at room temperature (RT, 20° C.). After 15 minutes, 4 μL of PFI-411FP was added to each well and the assay plate was placed in the dark at RT. The final assay concentration (FAC) of PFI-411FP was 2 nM, the FAC of BRD4 BD1 was 40 nM, the FAC of test compound ranged from 120 to 0.0012 μM and the FAC of DMSO was 0.4%. After 60 min, polarization values were measured with an Envision 2103 multilabel reader (Perkin Elmer) using a Cy5 dual enhanced mirror and excitation at 620 nm and emission at 688 nm. The percent (%) effect was calculated for each concentration of test compound and was relative to the amount of polarization signal produced by the positive and negative control wells contained within each assay plate. The concentrations and % effect values for test compounds were plotted versus each other with a proprietary curve fitting program using a four-parameter logistic dose response equation and the concentration of compound required for 50% effect (IC50) was determined. The Ki values of competitive inhibitors were calculated using the equation described by Nikolovska-Coleska et al. (Development and optimization of a binding assay for the XIAP BIR3 domain using fluorescence polarization. Analytical Biochemistry (2004) 332: 261-273).

[1] = tested on: LPS-induced IL-6 production in human whole blood; assay: IL-6 human whole blood (HWB) assay, LPS-stimulated, HTRF detection; assay type: cell-based; conditions: 1 ng/ml LPS, 4 hours
Description: Compound effect on IL-6 production was determined using lipopolysaccharide (LPS)-stimulated human whole blood and an HTRF (Homogeneous Time-Resolved Fluorescence) IL-6 detection kit (Human IL6 HTRF Assay CisBio 62IL6PEC). HWB was collected by venous puncture from healthy donors, transferred to a 50 ml polypropylene tube containing sodium heparin (14.3 units per mL of HWB) and then placed in a 37° C. water bath until use. To start the assay, 80 μL of heparin-treated HWB containing 1 ng/ml of LPS (equivalent to LPS ˜EC80 with regard to stimulation of IL-6 production in HWB under these assay conditions) was added to each well of a 384-well, sterile, endotoxin-free, polypropylene plate (Greiner 781281) containing 160 nL of various concentrations of test compound (each plate also contained positive and negative control wells to define the upper and lower limits of the assay signal). The plate was then placed in a thermoshaker incubator set to 370C (Boekel 270440). The final assay concentration (FAC) of test compound ranged from 60 to 0.0006 μM and the FAC of DMSO was 0.2%. After 4 hours, the assay plate was removed from the incubator and centrifuged at 700×g for 10 minutes. 5 μL of the resulting upper plasma layer was removed from each well and diluted 1:2 with 1×Dulbecco's phosphate buffered saline (DPBS). 5 μL of this diluted plasma was then transferred to a white 384-well low volume assay plate (Greiner 784080) containing 5 μL of combined anti-IL-6-Cryptate and anti-IL-6-XL665 detection antibodies (per manufacturer's protocol). The plate was then sealed with a Top Seal (Perkin Elmer 6005185) and incubated at room temperature (RT, 20° C.). After 16-18 hrs (overnight), the HTRF assay signal was read on an Envision 2103 plate reader using a Lance Delfia Dual/Bias mirror TRF laser excitation and emission was measured at 665 nm and 615 nm respectively. The percent (%) effect was calculated for each concentration of test compound and was relative to the amount of HTRF signal produced by the positive and negative control wells contained within each assay plate. The concentrations and % effect values for test compounds were plotted versus each other with a proprietary curve fitting program using a four-parameter logistic dose response equation and the concentration of compound required for 50% effect (IC50) was determined.

SMILES | IC50 (BRD4 BD1) [µM] | IC50 [1] [µM]
CC[C@@H](c1ccccc1)n1c(=O)c(NCCN2CCOCC2)nc2ccc(-c3c(C)noc3C)nc21 [Example 39, 6-(3,5-dimethyl-1,2-oxazol-4-yl)-2-{[2-(morpholin-4-yl)ethyl]amino}-4-[(1S)-1-phenylpropyl]pyrido[2,3-b]pyrazin-3(4H)-one] | 0.123 | 0.823
CC[C@@H](c1ccccc1)n1c(=O)c(NCCC(=O)O)nc2ccc(N(C)C(=O)CO)nc21 [Example 4, N-{6-[(hydroxyacetyl)(methyl)amino]-3-oxo-4-[(1S)-1-phenylpropyl]-3,4-dihydropyrido[2,3-b]pyrazin-2-yl}-beta-alanine] | 0.956 | 14.1
COc1ccccc1[C@H](C)n1c(=O)c(NCCC(=O)O)nc2ccc(N(C)C(C)=O)nc21 [Example 1, N-{6-[acetyl(methyl)amino]-4-[(1S)-1-(2-methoxyphenyl)ethyl]-3-oxo-3,4-dihydropyrido[2,3-b]pyrazin-2-yl}-beta-alanine] | 0.73 | 38.4
Cc1noc(C)c1-c1ccc2nc(NCC(=O)O)c(=O)n([C@@H](C)c3ccccc3)c2n1 [Example 41, N-{6-(3,5-dimethyl-1,2-oxazol-4-yl)-3-oxo-4-[(1S)-1-phenylethyl]-3,4-dihydropyrido[2,3-b]pyrazin-2-yl}glycine] | 0.585 | 35.5
CC[C@@H](c1ncccn1)n1c(=O)c(NCCC(=O)O)nc2ccc(-c3c(C)noc3C)nc21 [Example 45, N-{6-(3,5-dimethyl-1,2-oxazol-4-yl)-3-oxo-4-[(1S)-1-(pyrimidin-2-yl)propyl]-3,4-dihydropyrido[2,3-b]pyrazin-2-yl}-beta-alanine] | 0.325 | 8.44
Cc1noc(C)c1-c1ccc2nc(NCCc3nnn[nH]3)c(=O)n([C@@H](C)c3ccccc3)c2n1 [Example 51, 6-(3,5-dimethyl-1,2-oxazol-4-yl)-4-[(1S)-1-phenylethyl]-2-{[2-(1H-tetrazol-5-yl)ethyl]amino}pyrido[2,3-b]pyrazin-3(4H)-one] | 0.294 | 63.7
Cc1noc(C)c1-c1ccc2nc(NCCC(=O)O)c(=O)n([C@H](c3ccccc3)C(C)C)c2n1 [Example 53, N-{6-(3,5-dimethyl-1,2-oxazol-4-yl)-4-[(1S)-2-methyl-1-phenylpropyl]-3-oxo-3,4-dihydropyrido[2,3-b]pyrazin-2-yl}-beta-alanine] | 0.125 | 9.26
CNC(=O)CNc1nc2ccc(-c3c(C)noc3C)nc2n([C@@H](C)c2ccccc2OC)c1=O [Example 57, N^2-{6-(3,5-dimethyl-1,2-oxazol-4-yl)-4-[(1S)-1-(2-methoxyphenyl)ethyl]-3-oxo-3,4-dihydropyrido[2,3-b]pyrazin-2-yl}-N-methylglycinamide] | 0.159 | 0.919
CCC(=O)N(C)c1ccc2nc(NCCC(=O)NC)c(=O)n([C@H](c3ccccn3)C(C)C)c2n1 [Example 34, N-methyl-N^3-{6-[methyl(propanoyl)amino]-4-[(1S)-2-methyl-1-(pyridin-2-yl)propyl]-3-oxo-3,4-dihydropyrido[2,3-b]pyrazin-2-yl}-beta-alaninamide] | 0.167 | 0.426
CCC(=O)N(C)c1ccc2nc(NCCC(=O)O)c(=O)n(C3C(CC)CCC3CC)c2n1 (stereo not drawn) [Example 13, N-{4-(2,5-diethylcyclopentyl)-6-[methyl(propanoyl)amino]-3-oxo-3,4-dihdropyrido[2,3-b]pyrazin-2-yl}-beta-alanine] | 0.111 | 0.846
Cc1noc(C)c1-c1ccc2nc(NCCN3CCOCC3)c(=O)n([C@@H](C)c3ccccc3)c2n1 [Example 40, 6-(3,5-dimethyl-1,2-oxazol-4-yl)-2-{[2-(morpholin-4-yl)ethyl]amino}-4-[(1S)-1-phenylethyl]pyrido[2,3-b]pyrazin-3(4H)-one] | 0.225 | 1.39
COC[C@@H](c1ccccc1)n1c(=O)c(NCCC(=O)O)nc2ccc(N(C)C(C)=O)nc21 [Example 14, N-{6-[acetyl(methyl)amino]-4-[(1R)-2-methoxy-1-phenylethyl]-3-oxo-3,4-dihydropyrido[2,3-b]pyrazin-2-yl}-beta-alanine] | 0.223 | 4.8
COc1ccccc1[C@H](C)n1c(=O)c(NCCC(=O)O)nc2ccc(-c3c(C)noc3C)nc21 [Example 43, N-{6-(3,5-dimethyl-1,2-oxazol-4-yl)-4-[(1S)-1-(2-methoxyphenyl)ethyl]-3-oxo-3,4-dihydropyrido[2,3-b]pyrazin-2-yl}-beta-alanine] | 0.576 | 8.35
CC[C@@H](c1ccccc1)n1c(=O)c(NCCC(=O)O)nc2ccc(N(C)C(=O)N(C)C)nc21 [Example 22, N-{6-[(dimethylcarbamoyl)(methyl)amino]-3-oxo-4-[(1S)-1-phenylpropyl]-3,4-dihydropyrido[2,3-b]pyrazin-2-yl}-beta-alanine] | 0.913 | 22.5
Cc1noc(C)c1-c1ccc2nc(NCCC(=O)O)c(=O)n([C@@H](C)c3ccccc3)c2n1 [Example 42, N-{6-(3,5-dimethyl-1,2-oxazol-4-yl)-3-oxo-4-[(1S)-1-phenylethyl]-3,4-dihydropyrido[2,3-b]pyrazin-2-yl}-beta-alanine] | 0.146 | 6.16
Cc1noc(C)c1-c1ccc2nc(NCCC(=O)NS(C)(=O)=O)c(=O)n([C@@H](C)c3ccccc3)c2n1 [Example 50, N^3-{6-(3,5-dimethyl-1,2-oxazol-4-yl)-3-oxo-4-[(1S)-1-phenylethyl]-3,4-dihydropyrido[2,3-b]pyrazin-2-yl}-N-(methylsulfonyl)-beta-alaninamide] | 0.235 | 32
CCC(=O)N(C)c1ccc2nc(NC)c(=O)n(C(COC)COC)c2n1 [Example 20, N-(4-(1,3-dimethoxypropan-2-yl)-2-(methylamino)-3-oxo-3,4-dihydropyrido[2,3-b]pyrazin-6-yl)-N-methylpropionamide] | 1.07 | 1.46
CCCC(=O)N(C)c1ccc2nc(NCCC(=O)O)c(=O)n([C@@H](CC)c3ccccc3)c2n1 [Example 7, N-{6-[butanoyl(methyl)amino]-3-oxo-4-[(1S)-1-phenylpropyl]-3,4-dihydropyrido[2,3-b]pyrazin-2-yl}-beta-alanine] | 0.13 | 2.39
COc1ccccc1[C@H](C)n1c(=O)c(NCCN2CCOCC2)nc2ccc(-c3c(C)noc3C)nc21 [Example 35, 6-(3,5-dimethyl-1,2-oxazol-4-yl)-4-[(1S)-1-(2-methoxyphenyl)ethyl]-2-{[2-(morpholin-4-yl)ethyl]amino}pyrido[2,3-b]pyrazin-3(4H)-one] | 0.195 | 0.747
CC[C@@H](c1ccccc1)n1c(=O)c(NC(C)=O)nc2ccc(N(C)C(C)=O)nc21 [Example 21, N-{2-(acetylamino)-3-oxo-4-[(1S)-1-phenylpropyl]-3,4-dihydropyrido[2,3-b]pyrazin-6-yl}-N-methylacetamide] | 0.207 | 0.743
CC[C@@H](c1ccccc1)n1c(=O)c(NCCC(=O)O)nc2ccc(-c3c(C)noc3C)nc21 [Example 44, N-{6-(3,5-dimethyl-1,2-oxazol-4-yl)-3-oxo-4-[(1S)-1-phenylpropyl]-3,4-dihydropyrido[2,3-b]pyrazin-2-yl}-beta-alanine] | 0.0898 | 2.56
